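Cells were grown in 96-well plates and exposed to each compound for 48 hours at five concentrations; endpoints were interpolated linearly between bracketing concentrations, or set to the highest concentration if not reached. GI50: concentration for 50% inhibition of growth. TGI denotes the concentration required for complete inhibition of growth.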
How the values were obtained:
Experiment in all cases: DTP human tumour cell line panel, 48 h
[1] = system: UO-31 renal
[2] = system: LOX IMVI melanoma
[3] = system: SF-295 CNS
[4] = system: HCT-116 colon
[5] = system: NCI-H522 lung
[6] = system: HS 578T breast
[7] = system: NCI/ADR-RES ovarian
[8] = system: SK-OV-3 ovarian
[9] = system: NCI-H226 lung
[10] = system: A498 renal

Row | SMILES | TGI [1] | TGI [2] | TGI [3] | TGI [4] | TGI [5] | TGI [6] | TGI [7] | TGI [8] | TGI [9] | TGI [10] | GI50 [3] | GI50 [10] | GI50 [7] | GI50 [8] | GI50 [9] | GI50 [4] | GI50 [1] | GI50 [2] | GI50 [5]
1 | C=CCCC1(CCP(=O)(c2ccccc2)c2ccccc2)OCCO1 | > 100 µM | > 100 µM | > 100 µM | > 100 µM | > 100 µM | > 100 µM | > 100 µM |  |  |  |  |  |  |  |  |  |  |  | 
2 | O=C(/C=C/c1ccc(OCC(=O)N2CCN(c3ccccc3)CC2)cc1)c1ccccc1 | > 62 µM | 10.7 µM | > 100 µM | > 56.6 µM | > 56.8 µM |  |  | > 100 µM | > 60.4 µM | > 100 µM |  |  |  |  |  |  |  |  | 
3 | Cc1c(C(=O)C/C(=N/NC(=O)CC#N)C(N)=O)[n+](=O)c2ccccc2n1[O-] | > 100 µM | > 100 µM | > 100 µM | 94 µM | 51.6 µM |  |  | > 100 µM | > 100 µM | > 100 µM |  |  |  |  |  |  |  |  | 
4 | Cc1cc2c(SCc3ccccc3Cl)nc(N)nc2nc1C | > 100 µM | > 100 µM | > 100 µM | > 100 µM | > 100 µM | > 100 µM | > 100 µM | > 100 µM |  | > 100 µM |  |  |  |  |  |  |  |  | 
5 | Cn1nc(-c2ccccc2)c(C(=O)/C=C/c2ccccc2)c(N2CCCC2)c1=O | 38.7 µM | 88.2 µM |  | 19.2 µM | 23.7 µM |  |  | 85.9 µM |  | 26.9 µM |  |  |  |  |  |  |  |  | 
6 | Cc1cc(C2(c3cc(C)c(O)c4ncccc34)OC(=O)c3ccccc32)c2cccnc2c1O |  | > 100 µM | 21.3 µM | > 100 µM | > 100 µM |  | 17.1 µM | 21.9 µM |  | > 100 µM | 0.012 µM | 12.3 µM | 0.0138 µM |  |  |  |  |  | 
7 | CN(C)c1ccc(/C=C2\Cc3ccccc3C2=O)cc1Br | > 100 µM |  | > 100 µM |  | 70.6 µM |  |  | > 100 µM |  | > 100 µM |  |  |  |  |  |  |  |  | 
8 | NC1=NN(c2ccccc2)C(=O)C1/C(=N\NC(=O)c1cc2ccccc2cc1O)C(=O)Nc1ccc(Cl)cc1 (stereo unspecified) | 96.1 µM |  | > 100 µM | > 100 µM | 83.4 µM |  |  | > 100 µM | > 100 µM | 98.1 µM |  |  |  |  |  |  |  |  | 
9 | CC1=CC(=O)N2[C@H](OC[C@@H]2C(C)C)O1 | > 100 µM |  | > 100 µM | > 100 µM | > 100 µM |  |  | > 100 µM | > 100 µM |  |  |  |  |  |  |  |  |  | 
10 | O=c1cccccc1[O-].O=c1cccccc1[O-].O=c1cccccc1[O-].[Dy+3] | > 100 µM | > 100 µM | > 100 µM | 41.4 µM | > 100 µM |  |  | 98.3 µM | > 100 µM | > 100 µM |  | 80.7 µM |  |  |  |  |  |  | 
11 | O=C(CO[N+](=O)[O-])OCC(=O)c1ccccc1 | > 100 µM | > 100 µM | > 100 µM | > 100 µM | > 100 µM |  |  | > 100 µM | > 100 µM |  |  |  |  |  |  |  |  |  | 
12 | Oc1ccc(CCNc2nc3ccccc3c3[nH]c4ccccc4c23)cc1 |  |  | 2.87 µM | 2.89 µM |  |  | 9.28 µM | 27 µM | 7.3 µM | 23.8 µM | 1.38 µM | 11.5 µM | 2.68 µM | 13.7 µM | 2.65 µM | 1.22 µM |  |  | 
13 | CC(C)=NO.CC(C)=NO.CC(C)=NO.CC(C)=NO.[Ti] | > 100 µM | > 100 µM | > 100 µM |  | > 100 µM |  |  | > 100 µM | > 100 µM |  | > 100 µM |  |  | > 100 µM | > 100 µM |  | > 100 µM | > 100 µM | > 100 µM

From PubChem BioAssay (NCI)
